US20080051285A1 (priority 2004, published 2008)
Where two headings read alike, the source gives them in different places.

Test system: Pyricularia oryzae
Type: in vivo
Conditions: individual active compound, protective, inoculated next day, assessed after 6 days

Compound	Efficacy in % of the untreated control (1 ppm in the spray liquor)	Efficacy in % of the untreated control (4 ppm in the spray liquor)
CC1CCN(c2c(-c3c(F)cccc3Cl)c(Cl)nc3ncnn23)CC1 [A]	0%	13%
C[C@H](Nc1c(-c2c(F)cc(F)cc2F)c(Cl)nc2ncnn12)C(F)(F)F [B]	13%	57%
CC1CCN(c2c(-c3c(F)cc(F)cc3F)c(Cl)nc3ncnn23)CC1 [compound I, 5-chloro-7-(4-methylpiperidin-1-yl)-6-(2,4,6-trifluorophenyl)-[1,2,4]tri-azolo[1,5-a]pyrimidine]	13%	28%
C=CC1(C)OC(=O)N(c2cc(Cl)cc(Cl)c2)C1=O (centres unmarked) [compound II, 3-(3,5-dichlorophenyl)-5-methyl-5-vinyloxazolidine-2,4-dione]	0%	0%
